What is called IC50 is the concentration that gives 50% inhibition.

Molecules are shown by their SMILES. Where two headings read alike, the source gives them in different places. Some results are limits rather than exact numbers.

The target in the assay is BTK (Homo sapiens (Human), UniProt Q06187). The experiment in a line: Btk in vitro inhibitory activity (one of Method A TR-FRET, Method B electrophoretic mobility shift, Method C radiometric filter binding). The format is biochemical. For orientation: In EMSA bound probe runs differently from free probe, usually more slowly.
The mark [1] stands for this setting: determined using one of the methods of Example 355a, 355b and 355c, read-out: BTK IC50.

Chain of BTK (Q06187 whole entry): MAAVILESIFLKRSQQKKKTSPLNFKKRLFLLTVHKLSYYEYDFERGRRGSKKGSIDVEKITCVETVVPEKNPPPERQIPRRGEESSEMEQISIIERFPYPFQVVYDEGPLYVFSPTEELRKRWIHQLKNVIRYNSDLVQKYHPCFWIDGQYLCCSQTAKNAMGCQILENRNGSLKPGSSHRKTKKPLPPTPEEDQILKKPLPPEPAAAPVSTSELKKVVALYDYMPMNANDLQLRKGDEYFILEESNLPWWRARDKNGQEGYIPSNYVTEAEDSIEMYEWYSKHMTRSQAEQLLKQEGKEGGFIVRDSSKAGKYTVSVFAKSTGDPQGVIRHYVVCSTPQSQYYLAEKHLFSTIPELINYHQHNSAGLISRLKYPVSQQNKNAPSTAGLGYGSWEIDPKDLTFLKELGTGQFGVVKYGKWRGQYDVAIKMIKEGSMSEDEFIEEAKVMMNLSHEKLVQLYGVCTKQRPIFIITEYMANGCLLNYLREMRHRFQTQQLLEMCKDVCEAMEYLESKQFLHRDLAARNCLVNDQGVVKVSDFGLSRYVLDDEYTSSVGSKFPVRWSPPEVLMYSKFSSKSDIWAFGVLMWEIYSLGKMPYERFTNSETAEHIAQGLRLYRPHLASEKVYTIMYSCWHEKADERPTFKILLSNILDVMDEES

For `COc1ccc(C(=O)N[C@@H]2CCCN(c3cnc(C(N)=O)c(Nc4ccc(OCCN(C)C)cc4)n3)C2)cc1` [Example 115, (R)-3-(4-(2-(dimethylamino)ethoxy)phenylamino)-5-(3-(4-methoxybenzamido)piperidin-1-yl)pyrazine-2-carboxamide], the IC50 under setting [1] is below 10 nM.
For the molecule `CN1CCC(c2ccc(Nc3nc(N4CCC[C@@H](NC(=O)c5ccc(F)cc5)C4)cnc3C(N)=O)cc2)CC1` [Example 168, (R)-5-(3-(4-fluorobenzamido)piperidin-1-yl)-3-(4-(1-methylpiperidin-4-yl)phenylamino)pyrazine-2-carboxamide], the IC50 by setting is: under setting [1], below 10 nM; (read-out: Btk (IC50)) below 10 nM.
As to `CN1CCC(c2ccc(Nc3nc(N4CCC[C@@H](NC(=O)c5ccc(C(C)(C)C)cc5)C4)cnc3C(N)=O)cc2)CC1` [Example 130, (R)-5-(3-(4-tert-butylbenzamido)piperidin-1-yl)-3-(4-(1-methylpiperidin-4-yl)phenylamino)pyrazine-2-carboxamide], the IC50 is below 10 nM under setting [1] and below 10 nM (read-out: Btk (IC50)).
As to `CN(C)C(=O)N[C@@H]1CCCN(c2cnc(C(N)=O)c(Nc3ccc(C4CCN(C5CCC5)CC4)cc3)n2)C1` [Example 175, (R)-3-(4-(1-cyclobutylpiperidin-4-yl)phenylamino)-5-(3-(3,3-dimethylureido)piperidin-1-yl)pyrazine-2-carboxamide], the IC50 was below 10 nM under setting [1] and below 10 nM (read-out: Btk (IC50)).
With `CC(C)[N+]1([O-])CCC(c2ccc(Nc3nc(N4CCC[C@@H](NC(=O)N(C)C)C4)cnc3C(N)=O)cc2)CC1` (stereo partly drawn) [Example 209, (R)-4-(4-(3-carbamoyl-6-(3-(3,3-dimethylureido)piperidin-1-yl)pyrazin-2-ylamino)phenyl)-1-isopropylpiperidine 1-oxide], the IC50 under setting [1] fell in the range of 10 to 100 nM.
For the molecule `NC(=O)c1ncc(N2CCC[C@@H](N3CCN(C4CC4)C3=O)C2)nc1Nc1ccc(C2CCN(C3CCC3)CC2)cc1` [Example 278, (R)-3-(4-(1-cyclobutylpiperidin-4-yl)phenylamino)-5-(3-(3-cyclopropyl-2-oxoimidazolidin-1-yl)piperidin-1-yl)pyrazine-2-carboxamide], the IC50 by setting is: under setting [1], below 10 nM; (read-out: Btk (IC50)) below 10 nM.
As to `NC(=O)c1nnc(N2CCC[C@@H](NC(=O)c3ccc4ccccc4n3)C2)nc1Nc1ccc(C(=O)N2CCOCC2)cc1` [Example 84, (R)—N-(1-(6-carbamoyl-5-(4-(morpholine-4-carbonyl)phenylamino)-1,2,4-triazin-3-yl)piperidin-3-yl)quinoline-2-carboxamide], the IC50 reads like this: (Btk (IC50)) 10 to 100 nM; under setting [1], 10 to 100 nM.
Consider `COc1ccc(C(=O)N[C@@H]2CCCN(c3cnc(C(N)=O)c(Nc4ccc(C(C)C)cc4)n3)C2)cc1` [Example 160, (R)-3-(4-isopropylphenylamino)-5-(3-(4-methoxybenzamido)piperidin-1-yl)pyrazine-2-carboxamide], for which, under setting [1], the IC50 fell in the range of 10 to 100 nM.
Same read-out and setting: the value for `CC(C)(C)c1ccc(C(=O)N[C@@H]2CCN(c3nnc(C(N)=O)c(Nc4ccc(C(=O)N5CCOCC5)cc4)n3)C2)cc1` [Example 49, (R)-3-(3-(4-tert-butylbenzamido)pyrrolidin-1-yl)-5-(4-(morpholine-4-carbonyl)phenylamino)-1,2,4-triazine-6-carboxamide] was 100 to 1000 nM; that for `CN1CCN([C@@H]2CCCN(c3cnc(C(N)=O)c(Nc4ccc(C5CCN(C6CCC6)CC5)cc4)n3)C2)C1=O` [Example 258] was below 10 nM.
Regarding `CN(C)C(=O)N[C@@H]1CCCN(c2cnc(C(N)=O)c(Nc3ccc(C4CCN(C(=O)N(C)C)CC4)cc3)n2)C1` [Example 170, (R)-3-(4-(1-(dimethylcarbamoyl)piperidin-4-yl)phenylamino)-5-(3-(3,3-dimethylureido)piperidin-1-yl)pyrazine-2-carboxamide], the IC50 reads like this: under setting [1], below 10 nM; (read-out: Btk (IC50)) below 10 nM.
Take `CN1CCCN([C@@H]2CCCN(c3cnc(C(N)=O)c(Nc4ccc(C5CCN(C6CCCC6)CC5)cc4)n3)C2)C1=O` [Example 282, (R)-3-(4-(1-cyclopentylpiperidin-4-yl)phenylamino)-5-(3-(3-methyl-2-oxotetrahydropyrimidin-1(2H)-yl)piperidin-1-yl)pyrazine-2-carboxamide]: the 50% inhibitory concentration (IC50) is below 10 nM under setting [1] and below 10 nM (read-out: Btk (IC50)).
In the case of `C[C@@H]1[C@H](N2CCN(C)C2=O)CCCN1c1cnc(C(N)=O)c(Nc2ccc(C3(C)CCNCC3)cc2)n1` [Example 252, 5-((2R,3R)-2-methyl-3-(3-methyl-2-oxoimidazolidin-1-yl)piperidin-1-yl)-3-(4-(4-methylpiperidin-4-yl)phenylamino)pyrazine-2-carboxamide], the IC50 (Btk (IC50)) was below 10 nM and the IC50 under setting [1] was below 10 nM.
`C[C@@H]1[C@H](NC(=O)N(C)C)CCCN1c1cnc(C(N)=O)c(Nc2ccc(C3CCN(C4CCCC4)CC3)cc2)n1` [Example 232, 3-(4-(1-cyclopentylpiperidin-4-yl)phenylamino)-5-((2R,3R)-3-(3,3-dimethylureido)-2-methylpiperidin-1-yl)pyrazine-2-carboxamide]: the 50% inhibitory concentration (IC50) runs as follows: under setting [1], below 10 nM; (read-out: Btk (IC50)) below 10 nM.
`NC(=O)c1ncc(N2CC[C@H]3CCN(C(=O)C4CC4)[C@H]3C2)nc1Nc1ccc(C2CCN(C3CCCC3)CC2)cc1` (racemic) [Example 293, 3-(4-(1-cyclopentylpiperidin-4-yl)phenylamino)-5-((3aS,7aR)-1-(cyclopropanecarbonyl)tetrahydro-1H-pyrrolo[2,3-c]pyridin-6(2H,7H,7aH)-yl)pyrazine-2-carboxamide]: the IC50 lay in the range of 10 to 100 nM under setting [1] and 10 to 100 nM (read-out: Btk (IC50)).
Regarding `CN(C)C(=O)N1CC[C@@H]2[C@H]1CCCN2c1cnc(C(N)=O)c(Nc2ccc(C3CCN(C4CCCC4)CC3)cc2)n1` (racemic) [Example 287, (3aR,7aR)-4-(5-carbamoyl-6-(4-(1-cyclopentylpiperidin-4-yl)phenylamino)pyrazin-2-yl)-N,N-dimethyloctahydro-1H-pyrrolo[3,2-b]pyridine-1-carboxamide], the IC50 fell in the range of 10 to 100 nM under setting [1] and 10 to 100 nM (read-out: Btk (IC50)).
Consider `CC(C)Oc1ccc(C(=O)N[C@@H]2CCCN(c3nnc(C(N)=O)c(Nc4ccc(C(=O)N5CCOCC5)cc4)n3)C2)cc1` [Example 90, (R)-5-(4-(morpholine-4-carbonyl)phenylamino)-3-(3-(4-isopropoxybenzamido)piperidin-1-yl)-1,2,4-triazine-6-carboxamide], for which the IC50 by setting is: under setting [1], 10 to 100 nM; (read-out: Btk (IC50)) 10 to 100 nM.
Regarding `CCN1CCC(c2ccc(Nc3nc(N4CCC[C@@H](NC(=O)c5ccc(OC)cc5)C4)cnc3C(N)=O)cc2)CC1` [Example 132, (R)-3-(4-(1-ethylpiperidin-4-yl)phenylamino)-5-(3-(4-methoxybenzamido)piperidin-1-yl)pyrazine-2-carboxamide], the IC50 is below 10 nM under setting [1] and below 10 nM (read-out: Btk (IC50)).
Consider `CN(C)C(=O)N1CC[C@@H]2CCN(c3cnc(C(N)=O)c(Nc4ccc(C5CCN(C6CCCC6)CC5)cc4)n3)C[C@@H]21` (racemic) [Example 292, (3aS,7aR)-6-(5-carbamoyl-6-(4-(1-cyclopentylpiperidin-4-yl)phenylamino)pyrazin-2-yl)-N,N-dimethyloctahydro-1H-pyrrolo[2,3-c]pyridine-1-carboxamide], for which the IC50 lay within 10 to 100 nM (Btk (IC50)) and 10 to 100 nM under setting [1].
Take `CN(C(=O)N[C@@H]1CCCN(c2cnc(C(N)=O)c(Nc3ccc(F)cc3)n2)C1)c1cc(Cl)cc(C(F)(F)F)c1` [Example 322, (R)-5-(3-(3-(3-chloro-5-(trifluoromethyl)phenyl)-3-methylureido)piperidin-1-yl)-3-(4-fluorophenylamino)pyrazine-2-carboxamide]: the IC50 lay within 100 to 1000 nM under setting [1] and 100 to 1000 nM (read-out: Btk (IC50)).
For `C[C@@H]1[C@H](N)CCCN1c1cnc(C(N)=O)c(Nc2ccc(C3CCN(C4CCCC4)CC3)cc2)n1` [Example 230, 5-((2R,3R)-3-amino-2-methylpiperidin-1-yl)-3-(4-(1-cyclopentylpiperidin-4-yl)phenylamino)pyrazine-2-carboxamide], the IC50 runs as follows: (Btk (IC50)) 10 to 100 nM; under setting [1], 10 to 100 nM.
As to `CN1CCCN([C@@H]2CCCN(c3cnc(C(N)=O)c(Nc4ccc(C5CCN(C6CC6)CC5)cc4)n3)C2)C1=O` [Example 284, (R)-3-(4-(1-cyclopropylpiperidin-4-yl)phenylamino)-5-(3-(3-methyl-2-oxotetrahydropyrimidin-1(2H)-yl)piperidin-1-yl)pyrazine-2-carboxamide], the half-inhibitory concentration (IC50) by setting is: under setting [1], below 10 nM; (read-out: Btk (IC50)) below 10 nM.
`CN(C(=O)N[C@@H]1CCCN(c2cnc(C(N)=O)c(NC3CC3)n2)C1)c1cc(Cl)cc(C(F)(F)F)c1` [Example 352, (R)-5-(3-(3-(3-chloro-5-(trifluoromethyl)phenyl)-3-methylureido)piperidin-1-yl)-3-(cyclopropylamino)pyrazine-2-carboxamide]: the IC50 under setting [1] lay in the range of 1000 to 10000 nM.
As for `NC(=O)c1nnc(N2CCC[C@@H](NC(=O)N3CCCCC3)C2)nc1Nc1ccc(C2CCN(C=O)CC2)cc1` [Example 337, (R)-5-(4-(1-formylpiperidin-4-yl)phenylamino)-3-(3-(piperidine-1-carboxamido)piperidin-1-yl)-1,2,4-triazine-6-carboxamide], the IC50 is below 10 nM under setting [1] and below 10 nM (read-out: Btk (IC50)).
For `CN(C)C(=O)N[C@@H]1CCCN(c2cnc(C(N)=O)c(Nc3cnn(C4CCCC4)c3)n2)C1` [Example 217, (R)-3-(1-cyclopentyl-1H-pyrazol-4-ylamino)-5-(3-(3,3-dimethylureido)piperidin-1-yl)pyrazine-2-carboxamide], the IC50 under setting [1] is 10 to 100 nM.
As to `COc1ccc(C(=O)N[C@@H]2CCCN(c3cnc(C(N)=O)c(Nc4ccc(C5CCN(CC(F)(F)F)CC5)cc4)n3)C2)cc1` [Example 137, (R)-5-(3-(4-methoxybenzamido)piperidin-1-yl)-3-(4-(1-(2,2,2-trifluoroethyl)piperidin-4-yl)phenylamino)pyrazine-2-carboxamide], the IC50 by setting is: (Btk (IC50)) 10 to 100 nM; under setting [1], 10 to 100 nM.
On to `CC(C)(C)c1ccc(C(=O)N[C@@H]2CCCN(c3cnc(C(N)=O)c(Nc4ccc(C(=O)N5CCOCC5)cc4)c3)C2)cc1` [Example 76, (R)-5-(3-(4-tert-butylbenzamido)piperidin-1-yl)-3-(4-(morpholine-4-carbonyl)phenylamino)picolinamide], for which the IC50 under setting [1] is 100 to 1000 nM.

Values taken from US9656988B2 (Pharmacyclics LLC, priority 2013, dated 2017).
